Source: publication PMC9143506, “Investigating the Mechanisms behind the Positive Food Effect of Abiraterone Acetate: In Vitro and Rat In Situ Studies” (Pharmaceutics, 2022)
In brackets after ≈: the same amount, converted by molar mass. Read-outs that look alike come from different tables or passages of the source.

Columns and labels:
[1] = physchem; settings: 37 °C, Apparent solubility, micellar
Experimental: (§2) The apparent solubility (i.e., including both molecules freely dissolved in the aqueous phase and molecules solubilised in colloidal structures and lipid droplets [12]) of abiraterone and abiraterone acetate was determined in the different simulated fed state media (i.e., FeSSIF*, FeSSIF*-FM, FeSSIF*-FMT, FeSSIF*-FMTh, FeSSIF*-Th and FeSSIF*-E) using the shake flask method. Approximately 0.3 mg of compound was added to microcentrifuge tubes containing 0.3 mL of the abovementioned media and placed in a prewarmed shaking incubator (37 °C, 175 rpm; KS 4000 I control incubator from Ika (Staufen, Germany)) for 24 h. To the media containing lipid digestion products, 0.9 mg of compound was added instead of 0.3 mg. All solubility experiments were performed in triplicate. Afterwards, samples were centrifuged to separate the solid phase from the dissolved part (20.817 g, 30 min at 37 °C). […] To determine the solubility in the micellar layer, the top lipid layer was aspirated upon which the supernatant was diluted in MeOH:H2O (50:50 v/v) containing IS (abiraterone-d4 and abiraterone acetate-d4, final concentration 50 nM). To determine the solubility in the total sample, the entire supernatant was transferred into a new microcentrifuge tube and vortexed upon which the supernatant was diluted in MeOH:H2O (50:50 v/v) containing IS to fit the linear range.

[2] = tested on: esterase from porcine liver; assay: Enzymatic conversion of abiraterone acetate to abiraterone by porcine esterases; format: in vitro ADME; settings: 80 IU/mL porcine esterases
Experimental: (§1) The conversion of abiraterone acetate to abiraterone was studied in the abovementioned media using either 80 IU/mL esterase from porcine liver or 0.83 mg/mL porcine pancreatin. A total of 150 µM abiraterone acetate (DMSO stock solution) was added to 2 mL of the media in a 12-well plate and placed in a prewarmed shaking incubator (37 °C, 300 rpm; Thermostar, BMG Labtech, Offenburg, Germany). Samples were obtained in triplicate at predetermined time points and centrifuged immediately (20.817 g, 5 min). When lipids were present, drug concentrations were determined in both total (lipid + micellar) and micellar layer as described above.

[3] = PAMPA
Experimental: (§3) To investigate the impact of TG and lipid digestion products (FFA, MG) on the passive permeation of abiraterone, transport experiments were performed in the AMI-system according to Berben et al. [13]. In short, a regenerated cellulose membrane (molecular weight cut-off 2 kDa) was mounted between two plastic rings resulting in a surface area of 4.91 cm^2. Membrane integrity was checked by water leakage. The AMI-system was placed in a six-well plate on a shaking incubator at 37 °C and 300 rpm. A 1:3 ratio was maintained between donor and acceptor volumes by applying 2 mL of TPGS-solution to the acceptor compartment and 665 µL of the donor solution of abiraterone in the media prepared as described above. The initial concentration of abiraterone depended on the medium to ensure donor concentrations below the solubility and sufficient permeation to quantify the permeated amount in the acceptor compartment: 10 μM in FaSSIF, 30 μM in FeSSIF*, FeSSIF*-Th and FeSSIF*-E, and 150 μM in FeSSIF*-FM, FeSSIF*-FMT and FeSSIF*-FMTh. Samples (100 µL) were taken from the acceptor compartment at 15, 30, 45, 60 and 120 min and diluted 1:1 in MeOH:H2O (50:50 v/v) containing IS. Subsequently, the withdrawn volumes were replaced by fresh TPGS-solution.
(§4) The apparent permeability coefficient (Papp) was calculated from the cumulative amount of abiraterone appearing in the acceptor compartment according to Equation (1):(1) Papp=dQ/dt×1/A×Cdonor where dQ/dt is the amount of abiraterone appearing in the acceptor compartment over time, A represents the effective surface area available for transport, and Cdonor is the initial concentration in the donor compartment. Data are represented as mean ± standard deviation (SD).

[4] = tested on: porcine pancreatin; assay: Enzymatic conversion of abiraterone acetate to abiraterone by porcine pancreatin; format: in vitro ADME; settings: porcine pancreatin 0.83 mg/mL (same with esterases), 150 μM
Experimental: as §1

[5] = design: method as in PMID 25592324; settings: FaSSIF, pH 6.5; cited from earlier work
[6] = 24 h, pH 6.5
Experimental: as §2

[7] = cited from earlier work
[8] = 1000 mg a day; cited from earlier work
[9] = Passive permeation in the artificial membrane insert system (AMI-system)
Experimental: as §3, §4

[10] = tested on: small intestine (ileum); assay: Rat in situ intestinal perfusion with mesenteric blood sampling
[11] = Apparent solubility, shake flask method in simulated intestinal media; settings: 37 °C, pH 6.5, 37 °C, mean ± SD (n = 3)
Experimental: as §2

[12] = FeSSIF*-FM, FeSSIF*-FMT and FeSSIF*-FMTh
[13] = abiraterone acetate suspension 0.5 mg/mL, 80 IU/mL esterases

CC(=O)O[C@H]1CC[C@@]2(C)C(=CC[C@@H]3[C@@H]2CC[C@]2(C)C(c4cccnc4)=CC[C@@H]32)C1 [abiraterone acetate]
solubility at 24 h ([1]; pH 6.5, fessif, thermodynamic from solid): 148 µM | solubility at 24 h ([1]; pH 6.5, thermodynamic from solid): 2110 µM | Time to almost full conversion to abiraterone ([2]; FaSSIF and FeSSIF*, 150 µM, 37 °C): ≤ 30 min | Conversion in media containing lipid degradation products [2, 12]: very limited | Degradation in media with undigested TG ([2]; FeSSIF*-Th and FeSSIF*-E): slower degradation | Permeation across the cellulose membrane [3]: too low | Degradation in FeSSIF* compared to FeSSIF*-E [4]: degraded faster | Apparent solubility, micellar [5]: 64.6 (±5.2) ^1 µM | Increase of concentration in the total sample in FeSSIF*-FMTh compared to FeSSIF*-FMT [6]: 2 fold | Increase of solubility in FeSSIF*-FM compared to FeSSIF* [6]: 14 fold | Log P [7]: 5.12 | Excretion of the oral dose [8]: largely excreted in the faeces

C[C@]12CC[C@H](O)CC1=CC[C@@H]1[C@@H]2CC[C@]2(C)C(c3cccnc3)=CC[C@@H]12 [abiraterone]
Permeability (Papp) in FaSSIF ([9]; FaSSIF, 10 μM donor, compared to Papp values of 14 compounds of ref 13): low permeability | Lowering of permeability in FeSSIF* compared to FaSSIF ([9]; FeSSIF* vs FaSSIF): 2.6 fold | Change of passive permeability with FFA and MG [9, 12]: significant decrease | Effect of addition of TG to FeSSIF* on Papp ([9]; FeSSIF*-Th and FeSSIF*-E vs FeSSIF*): did not have an effect | Supersaturation in the perfusate ([10]; FaSSIF and FeSSIF*, entire course of the experiment): apparent supersaturation | Supersaturation in the perfusate ([10]; FeSSIF*-FM, FeSSIF*-FMT, FeSSIF*-FMTh): No supersaturation was observed | Absorptive flux in media with lipid digestion products ([10]; FeSSIF*-FM, FeSSIF*-FMT, FeSSIF*-FMTh, abiraterone acetate suspension 0.5 mg/mL, 80 IU/mL esterases): comparable to the flux in FaSSIF | Abiraterone AUC0–60min in the perfusate, FeSSIF* compared to FaSSIF [10, 13]: much higher | Abiraterone flux towards the mesenteric vein, FeSSIF* compared to FaSSIF [10, 13]: increased | Absorptive flux in FeSSIF*-E and FeSSIF*-Th compared to FaSSIF [10, 13]: increased | Absorptive flux in FeSSIF*-Ed compared to FaSSIF and FeSSIF*-FMT ([10]; ongoing lipolysis, pancreatin 0.83 mg/mL, abiraterone acetate suspension 0.5 mg/mL): substantially higher | solubility at 24 h ([11]; FeSSIF*, micellar, pH 6.5, fessif, thermodynamic from solid): 32.7 µM (≈ 11.4 µg/mL) | solubility at 24 h ([11]; FeSSIF*-E, micellar layer of the supernatant, pH 6.5, thermodynamic from solid, micellar layer): 22 µM (≈ 7.69 µg/mL) | solubility at 24 h ([11]; FeSSIF*-E, total sample (micellar + lipid layer), pH 6.5, thermodynamic from solid, total sample (micellar + lipid layer), FeSSIF*-E): 39 µM | solubility at 24 h ([11]; FeSSIF*-FM, micellar, pH 6.5, thermodynamic from solid): 176 µM (≈ 61.5 µg/mL) | solubility at 24 h ([11]; FeSSIF*-FMT, micellar layer of the supernatant, pH 6.5, thermodynamic from solid, micellar layer): 161 µM (≈ 56.3 µg/mL) | solubility at 24 h ([11]; FeSSIF*-FMT, total sample (micellar + lipid layer), pH 6.5, thermodynamic from solid, total sample (micellar + lipid layer), FeSSIF*-FMT): 199 µM | solubility at 24 h ([11]; FeSSIF*-FMTh, micellar layer of the supernatant, pH 6.5, thermodynamic from solid, micellar layer): 158 µM (≈ 55.2 µg/mL) | solubility at 24 h ([11]; FeSSIF*-FMTh, total sample (micellar + lipid layer), pH 6.5, thermodynamic from solid, total sample (micellar + lipid layer), FeSSIF*-FMTh): 221 µM | solubility at 24 h ([11]; FeSSIF*-Th, micellar layer of the supernatant, pH 6.5, thermodynamic from solid, micellar layer): 31 µM (≈ 10.8 µg/mL) | solubility at 24 h ([11]; FeSSIF*-Th, total sample (micellar + lipid layer), pH 6.5, thermodynamic from solid, total sample (micellar + lipid layer), FeSSIF*-Th): 50 µM | Apparent solubility, micellar [5]: 12.7 (±4.2) ^1 µM | Increase of solubility in FeSSIF*-FM compared to FeSSIF* [6]: 5 fold | Log P ([7]; quoted in the discussion of solubility, no reference given): 3.97
